These results are taken from patent US20230086703A1, “N-(4-(5-chloropyridin-3-yl)phenyl)-2-(2-(cyclopropanesulfonamido)pyrimidin-4-yl) butanamide derivatives and related compounds as human CTPS1 inhibitors for the treatment of proliferative diseases” (Step Pharma S.A.S., priority 2019, published 2023).

For assay [1], the target named is T1, human CTPS1 (Homo sapiens, UniProt P17812).
T1 construct: FLAG (with GG linker); His8 (with GG linker); purchased Proteros biostructures GmbH
T1 sequence (P17812 1-591): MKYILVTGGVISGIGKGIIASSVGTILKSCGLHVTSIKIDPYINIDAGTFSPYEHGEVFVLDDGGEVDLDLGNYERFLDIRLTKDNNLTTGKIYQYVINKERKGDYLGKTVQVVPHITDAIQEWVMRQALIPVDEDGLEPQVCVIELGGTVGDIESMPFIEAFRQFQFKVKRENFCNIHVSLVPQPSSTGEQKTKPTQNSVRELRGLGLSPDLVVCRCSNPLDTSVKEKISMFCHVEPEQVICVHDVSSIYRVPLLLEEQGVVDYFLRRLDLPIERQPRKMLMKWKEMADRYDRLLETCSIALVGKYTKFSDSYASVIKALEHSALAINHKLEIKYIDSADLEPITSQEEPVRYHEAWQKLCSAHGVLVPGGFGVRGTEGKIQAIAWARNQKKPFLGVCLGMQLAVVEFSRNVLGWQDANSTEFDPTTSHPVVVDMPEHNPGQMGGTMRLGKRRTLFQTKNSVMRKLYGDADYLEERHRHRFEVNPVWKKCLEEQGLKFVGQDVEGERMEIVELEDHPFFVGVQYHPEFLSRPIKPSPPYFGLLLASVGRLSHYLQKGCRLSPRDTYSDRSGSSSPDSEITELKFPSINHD
In words: RapidFire/MS-based enzyme selectivity assay (human CTPS1 versus CTPS2), CTPS1 isoform. The assay is classed as biochemical. The note with it: RapidFire/MS IC50 values of CTPS1 and CTPS2. The procedure, abridged: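 Full-length C-terminal FLAG-His-tagged CTPS1 (1-591) was preincubated 10 min at 25 °C with compound in HEPES pH 8.0 buffer with MgCl2, KCl, DTT and Tween-20. Reactions were started with a 2× mix of ATP 0.3 mM, UTP 0.2 mM, GTP 0.07 mM and L-glutamine 0.1 mM, and run in the linear phase at 25 °C. IC50 comes from the RapidFire-MS ratio of CTP to 13C9-15N3-CTP.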

Assay [2] concerns the target T1, human CTPS1. In words: Human CTPS1 enzyme inhibition, ADP-Glo Max assay. Type of assay: biochemical. The procedure, abridged: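 Read-out is ADP-Glo Max luminescence: residual ATP depleted (60 min), then produced ADP converted back to ATP for luciferase detection (60 min). Beforehand, protein and compound were mixed for 10 min at 25 °C in Tris buffer pH 8.0 with MgCl2, Tween-20 and 2 mM L-cysteine. Results expressed as percentage inhibition per concentration.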
In general terms: ADP-Glo first removes unused ATP, then detects ADP through luciferase.

Setting [3] is: Table 12, ADP-Glo Max assay, read-out: CTPS1 (Human CTPS1 Enzyme Inhibition data grouped by potency range).

Each structure is given as a SMILES string. Like-named read-outs stand apart in the source and are kept apart here. A value given as a limit tells only on which side of the number the result lay.

`COC1CCC(C(=O)Nc2ccc(-c3cncc(C4CC4)n3)cn2)(c2ccnc(NS(=O)(=O)C3CC3)n2)CC1` (stereo not drawn) [P301]: in assay [1] (Table 17), the “Selectivity (fold selectivity between CTPS1 and CTPS2)” value was “+++ (>60 fold (+++))”. Besides, in assay [2] (setting [3]), the IC50 is below 0.1 µM.
On to `CCS(=O)(=O)N1CCC(C(=O)Nc2ccc(-c3cncc(C4CC4)n3)cn2)(c2nccc(NS(=O)(=O)C3CC3)n2)CC1` [P317], for which, in assay [1] (Table 17), the “Selectivity (fold selectivity between CTPS1 and CTPS2)” value is listed as “+++ (>60 fold (+++))”. The IC50 in assay [2] (setting [3]) was below 0.1 µM.
The corresponding values for `CCOc1cncc(-c2ccc(NC(=O)C3(c4ccnc(NS(=O)(=O)C5CC5)n4)CCC(N4CCCC4)CC3)nc2)n1` (stereo not drawn) [P303] are “+++ (>60 fold (+++))” and 0.1 to 1 µM.
For `CCOc1cncc(-c2ccc(NC(=O)C3(c4ccnc(NS(=O)(=O)C5CC5)n4)CCN(S(=O)(=O)C(F)(F)F)CC3)nc2)n1` [P292] the same measures were “+++ (>60 fold (+++))” and below 0.1 µM.
`CCOc1cncc(-c2ccc(NC(=O)C3(c4ccnc(NS(=O)(=O)C5CC5)n4)CCC(N4CCN(C)CC4)CC3)nc2)n1` (stereo not drawn) [P312]: the “Selectivity (fold selectivity between CTPS1 and CTPS2)” value in assay [1] (Table 17) was “+++ (>60 fold (+++))”. Moreover, the IC50 in assay [2] (setting [3]) is below 0.1 µM.
In the case of `CCOc1cncc(-c2ccc(NC(=O)C3(c4nccc(NS(=O)(=O)C5CC5)n4)CCN(S(=O)(=O)CC)CC3)nc2)n1` [P318], in assay [1] (Table 17), the “Selectivity (fold selectivity between CTPS1 and CTPS2)” value is “+++ (>60 fold (+++))”. Also, in assay [2] (setting [3]), the IC50 is below 0.1 µM.
Take `CCOc1cncc(-c2ccc(NC(=O)C3(c4ccnc(NS(=O)(=O)C5CC5)n4)CCN(S(=O)(=O)CC)CC3)nc2)n1` [P289]: the “Selectivity (fold selectivity between CTPS1 and CTPS2)” value in assay [1] (Table 17) is reported as “+++ (>60 fold (+++))”. For the same compound, in assay [2] (setting [3]), the IC50 is below 0.1 µM.
The corresponding values for `CCOc1cncc(-c2ccc(NC(=O)C3(c4ccnc(NS(=O)(=O)C5CC5)n4)CCN(S(=O)(=O)C4CC4)CC3)nc2)n1` [P290] are “+++ (>60 fold (+++))” and below 0.1 µM.
Consider `CCOc1cncc(-c2ccc(NC(=O)C3(c4nccc(NS(=O)(=O)C5CC5)n4)CCN(S(C)(=O)=O)CC3)nc2)n1` [P316], for which the “Selectivity (fold selectivity between CTPS1 and CTPS2)” value in assay [1] (Table 17) is listed as “+++ (>60 fold (+++))”. In assay [2] (setting [3]), the IC50 was below 0.1 µM.
For `CCOc1cncc(-c2ccc(NC(=O)C3(c4ccnc(NS(=O)(=O)CC)n4)CCN(S(=O)(=O)c4ccn(C)n4)CC3)nc2)n1` [P300] the same measures were “+++ (>60 fold (+++))” and below 0.1 µM.
As to `CCOc1cncc(-c2ccc(NC(=O)C3(c4ccnc(NS(=O)(=O)C5CC5)n4)CCC(N4CCOCC4)CC3)nc2)n1` (stereo not drawn) [P305], in assay [1] (Table 17), the “Selectivity (fold selectivity between CTPS1 and CTPS2)” value was “+++ (>60 fold (+++))”. In addition, the IC50 in assay [2] (setting [3]) was in the range of 0.1 to 1 µM.
Turning to `CCOc1cncc(-c2ccc(NC(=O)C3(c4ccnc(NS(=O)(=O)CC)n4)CCN(S(C)(=O)=O)CC3)nc2)n1` [P297], the “Selectivity (fold selectivity between CTPS1 and CTPS2)” value in assay [1] (Table 17) was “+++ (>60 fold (+++))”. Besides, in assay [2] (setting [3]), the IC50 is below 0.1 µM.
On to `CCOc1cncc(-c2ccc(NC(=O)C3(c4ccnc(NS(=O)(=O)CC)n4)CCN(S(=O)(=O)C4CC4)CC3)nc2)n1` [P299], for which, in assay [1] (Table 17), the “Selectivity (fold selectivity between CTPS1 and CTPS2)” value was “+++ (>60 fold (+++))”. Further, the IC50 in assay [2] (setting [3]) was below 0.1 µM.
Regarding `CCOc1cncc(-c2ccc(NC(=O)C3(c4ccnc(NS(=O)(=O)C5CC5)n4)CCN(S(=O)(=O)c4ccn(C)n4)CC3)nc2)n1` [P293], in assay [1] (Table 17), the “Selectivity (fold selectivity between CTPS1 and CTPS2)” value is reported as “+++ (>60 fold (+++))”. In addition, in assay [2] (setting [3]), the IC50 is below 0.1 µM.
For `CCOc1cncc(-c2ccc(NC(=O)C3(c4ccnc(NS(=O)(=O)C5CC5)n4)CCC(N4CCCC4)CC3)nc2)n1` (stereo not drawn) [P302] the same measures were “+++ (>60 fold (+++))” and below 0.1 µM.
On to `CCOc1cncc(-c2ccc(NC(=O)C3(c4ccnc(NS(=O)(=O)C5CC5)n4)CCC(N(C)CCOC)CC3)nc2)n1` (stereo not drawn) [P308], for which the “Selectivity (fold selectivity between CTPS1 and CTPS2)” value in assay [1] (Table 17) was “+++ (>60 fold (+++))”. For the same compound, in assay [2] (setting [3]), the IC50 is below 0.1 µM.
The corresponding values for `CCOc1cncc(-c2ccc(NC(=O)C3(c4ccnc(NS(=O)(=O)C5CC5)n4)CCC(N(C)CCOC)CC3)nc2)n1` (stereo not drawn) [P309] are “+++ (>60 fold (+++))” and 0.1 to 1 µM.
The corresponding values for `CCOc1cncc(-c2ccc(NC(=O)C3(c4cncc(NS(=O)(=O)C5CC5)n4)CCN(S(C)(=O)=O)CC3)nc2)n1` [P314] are “+++ (>60 fold (+++))” and below 0.1 µM.
For the compound `CCOc1cncc(-c2ccc(NC(=O)C3(c4ccnc(NS(=O)(=O)C5CC5)n4)CCC(N(C)C4COC4)CC3)nc2)n1` (stereo not drawn) [P307], in assay [1] (Table 17), the “Selectivity (fold selectivity between CTPS1 and CTPS2)” value is reported as “+++ (>60 fold (+++))”. Further, the IC50 in assay [2] (setting [3]) was below 0.1 µM.
As for `CCOc1cncc(-c2ccc(NC(=O)C3(c4nccc(NS(=O)(=O)C5CC5)n4)CCN(CC#N)CC3)nc2)n1` [P294], the “Selectivity (fold selectivity between CTPS1 and CTPS2)” value in assay [1] (Table 17) is listed as “+++ (>60 fold (+++))”. In assay [2] (setting [3]), the IC50 is below 0.1 µM.
The corresponding values for `CS(=O)(=O)N1CCC(C(=O)Nc2ccc(-c3cncc(C4CC4)n3)cn2)(c2nccc(NS(=O)(=O)C3CC3)n2)CC1` [P315] are “+++ (>60 fold (+++))” and below 0.1 µM.
For `CCOc1cncc(-c2ccc(NC(=O)C3(c4ccnc(NS(=O)(=O)C5CC5)n4)CCC(N(C)C)CC3)nc2)n1` (single isomer, unassigned) [P230, 1-(2-(cyclopropanesulfonamido)pyrimidin-4-yl)-4-(dimethylamino)-N-(5-(6-ethoxypyrazin-2-yl)pyridin-2-yl)cyclohexane-1-carboxamide] the same measures were “+ (2-30 fold (+))” and 1 to 10 µM.
For `COC1CCC(C(=O)Nc2ccc(-c3cncc(C4CC4)n3)cn2)(c2ccnc(NS(=O)(=O)C3CC3)n2)CC1` (stereo not drawn) [P313] the same measures were “+++ (>60 fold (+++))” and below 0.1 µM.
As for `CCOc1cncc(-c2ccc(NC(=O)C3(c4ccnc(NS(=O)(=O)C5CC5)n4)CCN(S(=O)(=O)N(C)C)CC3)nc2)n1` [P291], the “Selectivity (fold selectivity between CTPS1 and CTPS2)” value in assay [1] (Table 17) is recorded as “+++ (>60 fold (+++))”. Besides, the IC50 in assay [2] (setting [3]) was below 0.1 µM.
The corresponding values for `CCOc1cncc(-c2ccc(NC(=O)C3(c4ccnc(NS(=O)(=O)C5CC5)n4)CCC(N4CCOCC4)CC3)nc2)n1` (stereo not drawn) [P306] are “+++ (>60 fold (+++))” and below 0.1 µM.
For `CCOc1cncc(-c2ccc(NC(=O)C3(c4ccnc(NS(=O)(=O)CC)n4)CCN(S(=O)(=O)CC)CC3)nc2)n1` [P298] the same measures were “+++ (>60 fold (+++))” and below 0.1 µM.
In the case of `CCOc1cncc(-c2ccc(NC(=O)C(F)(CC)c3ccnc(NS(=O)(=O)C4CC4)n3)nc2)n1` (stereo not drawn) [P112, 2-(2-(Cyclopropanesulfonamido)pyrimidin-4-yl)-N-(5-(6-ethoxypyrazin-2-yl)pyridin-2-yl)-2-fluorobutanamide], the “Selectivity (fold selectivity between CTPS1 and CTPS2)” value in assay [1] (Table 15) is listed as “++ (>30-60 fold (++))”. Also, the IC50 in assay [2] (ADP-Glo Max assay, human full length CTPS1, read-out: CTPS1 (Human CTPS1 Enzyme Inhibition data grouped by potency range, IC50)) is below 0.1 µM.
